Measurements published in article PMC4720136 (Journal of the American Chemical Society, 2015).

Target: EncM (Streptomyces maritimus, UniProt Q9KHK2)
Experiment: stopped-flow flavin reduction at […] nm, hyperbolic fit of kobs
Assay type: biochemical
Conditions: read-out: apparent Kd; EncM-Flox (oxidized, inactive flavin form), anaerobic, 4 °C, 0.1 M Tris-H2SO4 pH 7.5, 10% glycerol

| SMILES | Kd [mM] |
| --- | --- |
| NC(=O)C1=CN([C@@H]2O[C@H](COP(=O)(O)OP(=O)(O)OC[C@H]3O[C@@H](n4cnc5c(N)ncnc54)[C@H](O)[C@@H]3O)[C@@H](O)[C@H]2O)C=CC1 [NADH] | 9.3 ± 0.3 |
| NC(=O)C1=CN([C@@H]2O[C@H](COP(=O)(O)OP(=O)(O)OC[C@H]3O[C@@H](n4cnc5c(N)ncnc54)[C@H](OP(=O)(O)O)[C@@H]3O)[C@@H](O)[C@H]2O)C=CC1 [NADPH] | 0.26 ± 0.01 |
